Results taken from patent US10836763B2, “5 to 7 membered heterocyclic amides as JAK inhibitors” (priority 2018, dated 2020).
Like-named read-outs stand apart in the source and are kept apart here.

Key:
[1] = system: IL-2 stimulated STAT5 phosphorylation in Tall-1 human T cell line; experiment: Inhibition of IL-2 stimulated pSTAT5 in Tall-1 T cells; assay type: cell-based; conditions: TALL-1, 0.5 h, read-out: Tall-1 pIC50 (converted)
Experimental: Assay 2: Inhibition of IL-2 Stimulated pSTAT5 in Tall-1 T Cells
The potency of test compounds for inhibition of interleukin-2 (IL-2) stimulated STAT5 phosphorylation was measured in the Tall-1 human T cell line (DSMZ) using AlphaLisa.
Phosphorylated STAT5 was measured via the AlphaLISA SureFire Ultra pSTAT5 (Tyr694/699) kit (PerkinElmer).
Compounds were serially diluted in DMSO and dispensed acoustically to empty wells. Assay media (phenol red-free DMEM (Life Technologies) supplemented with 10% FBS (ATCC)) was dispensed (4 μL/well) and plates shaken at 900 rpm for 10 mins. Cells were seeded at 45,000 cells/well in assay media (4 μL/well), and incubated at 37° C., 5% CO2 for 1 hour, followed by the addition of IL-2 (R&D Systems; final concentration 300 ng/mL) in pre-warmed assay media (4 μL) for 30 minutes. […] The lysate was shaken at 900 rpm for 10 minutes at room temperature (RT). Phosphorylated STAT5 was measured via the pSTAT5 AlphaLisa kit (PerkinElmer). Freshly prepared acceptor bead mixture was dispensed onto lysate (5 μL) under green filtered <100 lux light. Plates were shaken at 900 rpm for 2 mins, briefly spun down, and incubated for 2 hrs at RT in the dark. Donor beads were dispensed (5 μL) under green filtered <100 lux light. Plates were shaken at 900 rpm for 2 minutes, briefly spun down, and incubated overnight at RT in the dark. Luminescence was measured with excitation at 689 nm and emission at 570 nm using an EnVision plate reader (PerkinElmer) under green filtered <100 lux light.
To determine the inhibitory potency of test compounds in response to IL-2, the average emission intensity of beads bound to pSTAT5 was measured in a human T cell line. IC50 values were determined from analysis of the inhibition curves of signal intensity versus compound concentration. Data are expressed as pIC50 (negative decadic logarithm IC50) values (mean±standard deviation).

[2] = Lung and plasma drug concentration in the murine IL-13 pSTAT6 model; assay type: in vivo; conditions: mouse, other: oral aspiration, 50 µg/mouse; for Kp at 5 h: Balb/c, lung ng/g to plasma ng/mL at 5 hours, mice, oral aspiration, read-out: Lung to Plasma ratio at 5 hr; for concentration at 5 h: Balb/c mice, 1 mg/mL, 50 μL oral aspiration, 5 hr post dose
Experimental: (§1) Assay 3: Murine (Mouse) Model of IL-13 Induced pSTAT6 Induction in Lung Tissue
Adult Balb/c mice from Harlan were used in the assay. […] Animals were placed in lateral recumbency post dose and monitored for full recovery from anesthesia before being returned to their home cage. Four hours later, animals were once again briefly anesthetized and challenged with either vehicle or IL-13 (0.03 μg total dose delivered, 50 μL total volume) via oral aspiration before being monitored for recovery from anesthesia and returned to their home cage. One hour after vehicle or IL-13 administration, whole blood and lungs were collected for both pSTAT6 detection in lung homogenates using a Perkin Elmer AlphaLISA® SureFire® Ultra™ HV p-STAT6 (Tyr641) assay kit and for total drug concentration analysis in both lung and plasma. Blood samples were centrifuged (Eppendorf centrifuge, 5804R) for 4 minutes at approximately 12,000 rpm at 4° C. to collect plasma. […] Plasma and lung levels of test compound were determined by LC-MS analysis against analytical standards constructed into a standard curve in the test matrix. A lung to plasma ratio was determined as the ratio of the lung concentration in ng/g to the plasma concentration in ng/mL at 5 hours.

[3] = system: IL-13 induced pSTAT6 in lung tissue; experiment: Murine model of IL-13 induced pSTAT6 induction in lung tissue; assay type: in vivo, mouse; conditions: Balb/c mice, 1 mg/mL, 50 μL oral aspiration; IL-13 challenge 4 hours after compound; lung homogenate
Experimental: as §1
IL-13 binds to cell surface receptors activating members of the Janus family of kinases (JAK) which then phosphorylate STAT6 and subsequently activates further transcription pathways. In the described model, a dose of IL-13 was delivered locally into the lungs of mice to induce the phosphorylation of STAT6 (pSTAT6) which is then measured as the endpoint.
Activity in the model is evidenced by a decrease in the level of pSTAT6 present in the lungs of treated animals at 5 hours compared to the vehicle treated, IL-13 challenged control animals. The difference between the control animals which were vehicle-treated, IL-13 challenged and the control animals which were vehicle-treated, vehicle challenged dictated the 0% and 100% inhibitory effect, respectively, in any given experiment.

[4] = system: IFNγ stimulated STAT1 phosphorylation in CD14+ monocytes; experiment: Cellular JAK potency assay: inhibition of IFNγ-induced pSTAT1; assay type: cell-based; conditions: Homo sapiens, Monocyte, 0.5 h, read-out: pIC50, inhibition of IFNγ-induced pSTAT1 (converted)
Source text: Data are expressed as pIC50 (negative decadic logarithm IC50) values.

[5] = Pharmacokinetics in plasma and lung in mouse; assay type: in vivo; conditions: BALB/c mice, single oral aspiration, 0.2 mg/mL, 50 μL; for Kp / AUC(0-t): mouse, other: oral aspiration into the trachea, 10 µg/mouse; for Kp: lung / plasma, read-out: Lung Tissue:Plasma AUC ratio; for AUC(0-t): plasma, read-out: Plasma AUC(0-24)
Experimental: Assay 6: Pharmacokinetics in Plasma and Lung in Mouse
Plasma and lung concentrations of test compounds and ratios thereof were determined in the following manner. BALB/c mice from Charles River Laboratories were used in the assay. Test compounds were individually formulated in 20% propylene glycol in pH 4 citrate buffer at a concentration of 0.2 mg/mL and 50 μL of the dosing solution was introduced into the trachea of a mouse by oral aspiration. At various time points (typically 0.167, 2, 6, 24 hr) post dosing, blood samples were removed via cardiac puncture and intact lungs were excised from the mice.

[6] = IL-2 300 ng/mL, 30 min, pSTAT5 AlphaLisa
[7] = lung, read-out: Lung Concentration (ng/g) at 5 hr
[8] = plasma, read-out: Plasma Concentration (ng/mL) at 5 hr

| SMILES | IC50 [1, 6] | Kp at 5 h [2] | concentration at 5 h [2, 7] | concentration at 5 h [2, 8] | pSTAT6 inhibition at 5 hours [3] | IC50 [1] | other results |
| --- | --- | --- | --- | --- | --- | --- | --- |
| CCCN1Cc2[nH]c(-c3n[nH]c4cc(-c5cc(F)c(O)cc5CC)ccc34)nc2C[C@H]1C(=O)N1C[C@@H]2C[C@H]1CN2C [Compound C-2, ((S)-2-(6-(2-ethyl-5-fluoro-4-hydroxyphenyl)-1H-indazol-3-yl)-5-propyl-4,5,6,7-tetrahydro-3H-imidazo[4,5-c]pyridin-6-yl)((1S,4S)-5-methyl-2,5-diazabicyclo-[2.2.1]heptan-2-yl)methanone, reference compound] | 2.51 nM | – | – | – | – | – | – |
| CCc1cc(O)c(F)cc1-c1ccc2c(-c3nc4c([nH]3)CN(C)[C@H](C(=O)N3CCN(CCO)C[C@H]3C)C4)n[nH]c2c1 [Compound C-5, ((S)-2-(6-(2-ethyl-5-fluoro-4-hydroxyphenyl)-1H-indazol-3-yl)-5-methyl-4,5,6,7-tetrahydro-3H-imidazo[4,5-c]pyridin-6-yl)((R)-4-(2-hydroxyethyl)-2-methyl-piperazin-1-yl)methanone, reference compound] | 2.51 nM | – | – | – | – | – | – |
| CCCN1Cc2[nH]c(-c3n[nH]c4cc(-c5ccc(O)cc5CC)ccc34)nc2C[C@H]1C(=O)N1C[C@@H]2C[C@H]1CN2C [Compound 2, ((S)-2-(6-(2-ethyl-4-hydroxyphenyl)-1H-indazol-3-yl)-5-propyl-4,5,6,7-tetrahydro-3H-imidazo[4,5-c]pyridin-6-yl)((1S,4S)-5-methyl-2,5-diazabicyclo[2.2.1]heptan-2-yl)methanone] | 3.98 nM | 1340 | 23400 ± 12500 ng/g | 17.5 ± 25 ng/mL | 72% | – | – |
| CCc1cc(O)c(F)cc1-c1ccc2c(-c3nc4c([nH]3)CN(C(C)C)[C@H](C(=O)N3CCCN(C)CC3)C4)n[nH]c2c1 [Compound C-4, (S)-(2-(6-(2-ethyl-5-fluoro-4-hydroxyphenyl)-1H-indazol-3-yl)-5-isopropyl-4,5,6,7-tetrahydro-3H-imidazo[4,5-c]pyridin-6-yl)(4-methyl-1,4-diazepan-1-yl)methanone, reference compound] | 2 nM | – | – | – | – | – | – |
| CCc1cc(O)ccc1-c1ccc2c(-c3nc4c([nH]3)CN(C(C)C)[C@H](C(=O)N3CCCN(C)CC3)C4)n[nH]c2c1 [Compound 4, (S)-(2-(6-(2-ethyl-4-hydroxyphenyl)-1H-indazol-3-yl)-5-isopropyl-4,5,6,7-tetrahydro-3H-imidazo[4,5-c]pyridin-6-yl)(4-methyl-1,4-diazepan-1-yl)methanone] | – | 788 | 17400 ± 6620 ng/g | 22 ± 23 ng/mL | 67% | 2.51 nM | IC50 [4]: 50.1 nM |
| CCc1cc(O)ccc1-c1ccc2c(-c3nc4c([nH]3)CN(C)[C@H](C(=O)N3CCN(CCO)C[C@H]3C)C4)n[nH]c2c1 [Compound 5, ((S)-2-(6-(2-ethyl-4-hydroxyphenyl)-1H-indazol-3-yl)-5-methyl-4,5,6,7-tetrahydro-3H-imidazo[4,5-c]pyridin-6-yl)((R)-4-(2-hydroxyethyl)-2-methylpiperazin-1-yl)methanone] | – | 418 | 5440 ± 1860 ng/g | 13 ± 3.7 ng/mL | 73% | 1.58 nM | Lung Tissue AUC(0-24) [5]: 29.9 µg·h/g; Kp [5]: 49.9; AUC(0-t) [5]: 599 ng·h/mL |
| CCc1cc(O)ccc1-c1ccc2c(-c3nc4c([nH]3)CN(C(C)C)[C@H](C(=O)N3CC[C@H](N(C)C)C3)C4)n[nH]c2c1 [Compound 6, ((S)-3-(dimethylamino)pyrrolidin-1-yl)((S)-2-(6-(2-ethyl-4-hydroxyphenyl)-1H-indazol-3-yl)-5-isopropyl-4,5,6,7-tetrahydro-3H-imidazo[4,5-c]pyridin-6-yl)methanone] | – | 1030 | 11600 ± 4680 ng/g | 11.3 ± 5.7 ng/mL | 37% | 2 nM | – |
| CCCN1Cc2[nH]c(-c3n[nH]c4cc(-c5cc(F)c(O)cc5CC)ccc34)nc2C[C@H]1C(=O)N1CCN(CCO)CC1 [Compound C-1, (S)-(2-(6-(2-ethyl-5-fluoro-4-hydroxyphenyl)-1H-indazol-3-yl)-5-propyl-4,5,6,7-tetrahydro-3H-imidazo[4,5-c]pyridin-6-yl)(4-(2-hydroxyethyl)piperazin-1-yl)methanone, reference compound] | 2 nM | – | – | – | – | – | – |
| CCCN1Cc2[nH]c(-c3n[nH]c4cc(-c5ccc(O)cc5CC)ccc34)nc2C[C@H]1C(=O)N1CCN(CCO)CC1 [Compound 1, (S)-(2-(6-(2-ethyl-4-hydroxyphenyl)-1H-indazol-3-yl)-5-propyl-4,5,6,7-tetrahydro-3H-imidazo[4,5-c]pyridin-6-yl)(4-(2-hydroxyethyl)piperazin-1-yl)methanone] | 1.58 nM | 1260 | 13000 ± 5720 ng/g | 10.3 ± 3.9 ng/mL | 67% | – | Lung Tissue AUC(0-24) [5]: 64.6 µg·h/g; Kp [5]: 111; AUC(0-t) [5]: 581 ng·h/mL; IC50 ([4]; CD14+ monocytes, IFNγ 0.6 ng/mL, 30 min, flow cytometry): 31.6 nM |
| CCc1cc(O)c(F)cc1-c1ccc2c(-c3nc4c([nH]3)CN(C)[C@H](C(=O)N3CCN(C)C[C@@H]3C)C4)n[nH]c2c1 [Compound C-3, ((S)-2,4-dimethylpiperazin-1-yl)((S)-2-(6-(2-ethyl-5-fluoro-4-hydroxyphenyl)-1H-indazol-3-yl)-5-methyl-4,5,6,7-tetrahydro-3H-imidazo[4,5-c]pyridin-6-yl)methanone, reference compound] | 2 nM | – | – | – | – | – | – |
